Values quoted from earlier work as cited in WO2013169007A1, “Sustained-release complex preparations for treating diabetes with improved drug compliance and method for preparing same” (priority 2012, dated 2013).

drug half-life (continuous administration): about 9 hours
absorption by the gastrointestinal tract (in vivo, po): almost completely absorbed
Compound: CCC1=C(C)CN(C(=O)NCCc2ccc(S(=O)(=O)NC(=O)N[C@H]3CC[C@H](C)CC3)cc2)C1=O [glimepiride]
